The results in this text go back to US20250108036A1, “COMPOSITIONS FOR REMOVING SENESCENT CELLS AND USES THEREOF” (LIFECEUTIX CO., LTD., priority 2021, published 2025).

Holding throughout (format): cell-based, human
Experiment [1] concerns foreskin cells in which senescence was induced by doxorubicin. Put plainly: CellTiter-Glo cell viability of doxorubicin-induced senescent foreskin cells (Examples 1-2, 10, 11, 13; Tables 4, 63, 65). Conditions: doxorubicin-induced senescent foreskin cells, CellTiter-Glo, 0 μM = 100; for viability at 1.1 µM / viability at 10 µM / viability at 30 µM / viability at 90 µM / viability at […]: Homo sapiens, 72 h, read-out: Survival (%); for viability at 1.1 µM: 1.1 μM test compound; for viability at 10 µM: 10 μM test compound; for viability at 30 µM: 30 μM test compound; for viability at 90 µM: 90 μM test compound. (In general: ATP-based viability assays read luminescence as a measure of living cells.)
Experimental: After 3 days, cell viability was measured using CellTiter-Glo Luminescent Cell Viability Assay (Promega) or light microscopy.

Experiment [2] concerns HMGN1. Put plainly: HMGN1 ELISA in culture medium of foreskin cells (Examples 10, 11; Tables 62, 63, 64). Particulars: Homo sapiens, doxorubicin-treated foreskin cells, DMSO = 100; for activity at 90 µM: 90 μM test compound; for activity at 30 µM: 30 μM test compound, read-out: HMGN1. (In general: In an ELISA, binding on a coated surface is turned into a signal by an enzyme label.)

In experiment [3] the test system is HMGN1. Put plainly: HMGN1 ELISA in culture medium of A549 cancer cells (Example 12, Table 66). Particulars: Homo sapiens, A549, doxorubicin-induced senescent A549 cells, ELISA, DMSO = 100, read-out: HMGN1 (amount of HMGN1 secreted in the cell culture); for activity at 90 µM: test compound 90 μM; for activity at 30 µM: test compound 30 μM.
The test system of a further experiment is A549. Put plainly: CellTiter-Glo cell viability of senescent A549 cancer cells (Example 12, Table 67). Conditions: Homo sapiens, A549, doxorubicin-induced senescent A549 cancer cells, CellTiter-Glo, read-out: Survival (%); for viability at 1.1 µM: 1.1 μM test compound; for viability at 10 µM: 10 μM test compound; for viability at 30 µM: 30 μM test compound; for viability at 90 µM: 90 μM test compound.

Turning to `O=C(O)c1cc(/N=N/c2ccc(S(=O)(=O)Nc3ccccn3)cc2)ccc1O` [LX-1302, Sulfasalazine, reference compound], in experiment [1], the viability at 1.1 µM stood at 102%, the viability at 10 µM came out at 92.2%, the viability at 30 µM amounted to 79.6% and the viability at 90 µM came out at 52.4%. Moreover, in experiment [1] ([…] test compound), the viability at […] came out at 105%. Moreover, the activity at 90 µM in the experiment on HMGN1 [2] turned out to be 171%. In the experiment on HMGN1 [3], the activity at 90 µM amounted to 147%. In the experiment with A549, the viability at 1.1 µM was determined as 95.5%, the viability at 10 µM amounted to 102%, the viability at 30 µM worked out at 102% and the viability at 90 µM is 69.6%. In addition, the viability at 270 µM in the experiment with A549 (270 μM test compound) amounted to 19.8%.
As for `CC/C=C\C/C=C\C/C=C\C/C=C\C/C=C\C/C=C\CCC(=O)O` [LX-2702, Docosahexaenoic acid], in experiment [1], the viability at 1.1 µM is 104%, the viability at 10 µM stood at 87.4%, the viability at 30 µM worked out at 49.6% and the viability at 90 µM stood at 22.9%. For the same molecule, the viability at […] in experiment [1] ([…] test compound) was 99.1%. Moreover, the activity at 90 µM with HMGN1 [2] amounted to 206%. For the same molecule, the activity at 90 µM in the experiment with HMGN1 [3] came to 237%. In the experiment on A549, the viability at 1.1 µM was 96.7%, the viability at 10 µM came to 94.4%, the viability at 30 µM was 55.1% and the viability at 90 µM was found to be 9.5%.
As for `O=C1C(O)=C([C@H]2CC[C@H](c3ccc(Cl)cc3)CC2)C(=O)c2ccccc21` [LX-2802, Atovaquone, reference compound], the values for the viability at 1.1 µM (in experiment [1]; in the experiment on A549) were 102% and 101%, respectively. The viability at 10 µM in experiment [1] came out at 58.4%; with A549, 74.1%. Further, the viability at 30 µM in experiment [1] was determined as 17.2%; with A549 it was 35.7%. In addition, the viability at […] in experiment [1] ([…] test compound) came out at 81.2%. The activity at 30 µM in the experiment with HMGN1 [2] came out at 268%; in the experiment on HMGN1 [3], 279%.
With `CC(C)Oc1ccc(-c2ccccc2)cc1-n1c(CN2CCN(C(=O)COc3ccc(Cl)cc3)CC2)nc2ccccc2c1=O` [LX-1001], in experiment [1], the viability at 1.1 µM came to 89.9%, the viability at 10 µM is 57.7% and the viability at 30 µM was 34.5%. Moreover, the viability at […] in experiment [1] ([…] test compound) came to 81.8%. In the experiment with HMGN1 [2], the activity at 30 µM stood at 231%. Further, the activity at 90 µM in the experiment on HMGN1 [3] was 183%. Besides, in the experiment on A549, the viability at 1.1 µM was determined as 95.5%, the viability at 10 µM worked out at 92.2%, the viability at 30 µM worked out at 71.8% and the viability at 90 µM was found to be 25.3%.
On to `Cc1onc(C(=O)N2CCN(C(c3ccc(Cl)cc3)c3ccc(OCc4cn(CCOCCOCCNc5cccc6c5C(=O)N(C5CCC(=O)NC5=O)C6=O)nn4)cc3)CC2)c1[N+](=O)[O-]` (stereo not drawn) [LX-432, 4-((2-(2-(2-(4-((4-((4-chlorophenyl)(4-(5-methyl-4-nitroisooxazol-3-carbonyl)piperazin-1-yl)methyl)phenoxy)methyl)-1H-1,2,3-triazol-1-yl)ethoxy)ethoxy)ethyl)amino)-2-(2,6-dioxopiperidin-3-yl)isoindolin-1,3-dione], for which the viability at 1.1 µM in experiment [1] was 84.2%; in the experiment on A549 it was 97.1%. Also, the “Survival (%)” value in experiment [1] ([…] test compound) is 23.8%. Further, the activity at 30 µM in the experiment with HMGN1 [2] is 304%; with HMGN1 [3], 270%.
With `C[C@H]1Cc2c([nH]c3ccccc23)[C@H](c2ccc([Si](C)(C)C)cc2)N1C(=O)CCl` [LX-412], the viability at 1.1 µM is 0.3% in experiment [1] and 4.8% with A549. Further, the activity at 30 µM with HMGN1 [2] is 293%; in the experiment with HMGN1 [3], 327%.
On to `CC(=O)N[C@@H](Cc1c[nH]c2ccccc12)C(=O)N[C@@H](CCC(=O)C=[N+]=[N-])C(=O)OC(C)C` [LX-3201, Sirpiglenastat, reference compound], for which, in experiment [1], the viability at 1.1 µM stood at 99.3% and the viability at 10 µM was 20.1%. Further, in experiment [1] ([…] test compound), the viability at […] was 91.9%. In addition, the activity at 30 µM with HMGN1 [2] came out at 286%. Also, the activity at 30 µM in the experiment on HMGN1 [3] came out at 309%. In the experiment on A549, the viability at 1.1 µM amounted to 96.5%, the viability at 10 µM turned out to be 68.1% and the viability at 30 µM was determined as 12.8%.
For `COc1nc(-c2cccnc2)nc2c1CC[C@H]1[C@H](C)C(=O)C(C#N)=C[C@]21C` [LX-2315], the viability at 1.1 µM is 75.2% in experiment [1] and 98.2% in the experiment on A549. Besides, the viability at […] in experiment [1] ([…] test compound) came out at 2.9%. For the same molecule, the activity at 30 µM in the experiment on HMGN1 [2] was 235%; with HMGN1 [3], 247%. Further, in the experiment with A549, the viability at 10 µM stood at 39.2%.
Take `COC(=O)[C@]12CCC(C)(C)C[C@H]1[C@H]1C(=O)C[C@@H]3[C@@]4(C)C=C(C#N)C(=O)C(C)(C)[C@@H]4CC[C@@]3(C)[C@]1(C)CC2` [LX-2301]: the viability at 1.1 µM in experiment [1] was 2.6%; with A549 it was 21.5%. In addition, the activity at 30 µM with HMGN1 [2] worked out at 283%; in the experiment with HMGN1 [3], 274%.
On to `CC1(C)CC[C@]2(c3nc(CO)no3)CC[C@]3(C)[C@H](C(=O)C=C4[C@@]5(C)C=C(C#N)C(=O)C(C)(C)[C@@H]5CC[C@]43C)[C@@H]2C1` [LX-2508], for which the viability at 1.1 µM in experiment [1] was determined as 75.6%; in the experiment with A549 it was 93.5%. The viability at […] in experiment [1] ([…] test compound) amounted to 28.2%. For the same molecule, the activity at 30 µM stood at 313% with HMGN1 [2] and 283% with HMGN1 [3]. Moreover, the viability at 10 µM with A549 worked out at 43.9%.
As to `COC(=O)/C=C\C(C#N)(C#N)/N=C/c1ccc(C)cc1` [LX-920], in experiment [1], the viability at 1.1 µM is 100%, the viability at 10 µM was 86.2% and the viability at 30 µM amounted to 23.8%. Further, in experiment [1] ([…] test compound), the viability at […] stood at 95.4%. The activity at 30 µM with HMGN1 [2] turned out to be 278%. Also, the activity at 90 µM in the experiment on HMGN1 [3] is 197%. Further, in the experiment with A549, the viability at 1.1 µM stood at 98.4%, the viability at 10 µM was determined as 95.3%, the viability at 30 µM worked out at 93.9% and the viability at 90 µM came out at 25.1%.
In the case of `Cc1onc(C(=O)N2CCN(C(c3ccc(Cl)cc3)c3ccc(OCc4cn(CCOCCOCCOCCOCCNc5cccc6c5C(=O)N(C5CCC(=O)NC5=O)C6=O)nn4)cc3)CC2)c1[N+](=O)[O-]` (stereo not drawn) [LX-436, 4-((14-(4-((4-((4-chlorophenyl)(4-(5-methyl-4-nitroisooxazol-3-carbonyl)piperazin-1-yl)methyl)phenoxy)methyl)-1H-1,2,3-triazol-1-yl)-3,6,9,12-tetraoxatetradecyl)amino)-2-(2,6-dioxopiperidin-3-yl)isoindolin-1,3-dione], the values for the viability at 1.1 µM (in experiment [1]; in the experiment on A549) were 84.4% and 99.5%, respectively. Also, the viability at […] in experiment [1] ([…] test compound) was determined as 3.8%. Also, the activity at 30 µM in the experiment on HMGN1 [2] came to 299%; with HMGN1 [3], 278%.
With `CCC(=O)NC[C@]12CCC(C)(C)C[C@H]1[C@H]1C(=O)C=C3[C@@]4(C)C=C(C#N)C(=O)C(C)(C)[C@@H]4CC[C@@]3(C)[C@]1(C)CC2` [LX-2510], the viability at 1.1 µM in experiment [1] was determined as 62.9%; with A549, 95.7%. Also, in experiment [1] ([…] test compound), the viability at […] was found to be 11.8%. Besides, the activity at 30 µM in the experiment with HMGN1 [2] is 288%; in the experiment with HMGN1 [3] it was 317%. Moreover, the viability at 10 µM in the experiment with A549 stood at 2.9%.
Regarding `C[C@@H]1[C@H]2[C@H]3C(=O)C=C4[C@@]5(C)C=C(C#N)C(=O)C(C)(C)[C@@H]5CC[C@@]4(C)[C@]3(C)CC[C@@]2(CO)CC[C@H]1C` [LX-2512], the viability at 1.1 µM in experiment [1] turned out to be 38.2%; with A549 it was 88.5%. Besides, in experiment [1] ([…] test compound), the viability at […] amounted to 3.2%. Also, the values for the activity at 30 µM in the experiment on HMGN1 [2] and in the experiment with HMGN1 [3] were 276% and 274%, respectively. Also, the viability at 10 µM in the experiment on A549 came to 11.7%.
